Data from patent US9346812B2, “Substituted pyrrolopyrimidine compounds, compositions thereof, and methods of treatment therewith” (Signal Pharmaceutical LLC, priority 2013, dated 2016).

test system: CAL51 cell proliferation; test: Cell Titer Glo Proliferation Assay (CAL51); type: cell-based, human; settings: CAL51 cell proliferation, 72 h, Cell Titer Glo luminescence; read-out: Act. Level
Outline: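 CAL51 triple-negative breast cancer cells in DMEM or RPMI with 10% FBS were treated after overnight culture with serially diluted compound at 0.2% final DMSO. After 72 h, viability was read as CellTiter-Glo luminescence.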

| SMILES | IC50 [nM] |
| --- | --- |
| CNC(=O)c1ccc(Nc2nc(OC3CC3)c3c(-c4ccn(C)n4)c[nH]c3n2)c(OC)c1 [Example 218, 4-(4-cyclopropoxy-5-(1-methyl-1H-pyrazol-3-yl)-7H-pyrrolo[2,3-d]pyrimidin-2-ylamino)-3-methoxy-N-methylbenzamide] | 1000 to 10000 |
| COc1cc(C(=O)NC2CCCOC2)ccc1Nc1nc(OC2CCCC2)c2c(-c3ccc4nc(C)oc4c3)c[nH]c2n1 (centres unmarked) [Example 274, 4-(4-(cyclopentyloxy)-5-(2-methylbenzo[d]oxazol-6-yl)-7H-pyrrolo[2,3-d]pyrimidin-2-ylamino)-3-methoxy-N-(tetrahydro-2H-pyran-3-yl) benzamide] | < 100 |

same assay, conditions: Homo sapiens, CAL-51; CAL51 cell proliferation, 72 h, Cell Titer Glo luminescence; read-out: Act. Level

| SMILES | IC50 [nM] |
| --- | --- |
| COc1cc(C(=O)N2C[C@@H]2C)ccc1Nc1nc(OC2CCCC2)c2c(-c3ccc4nc(C)oc4c3)c[nH]c2n1 [Example 313, (S)-(4-(4-(cyclopentyloxy)-5-(2-methylbenzo[d]oxazol-6-yl)-7H-pyrrolo[2,3-d]pyrimidin-2-ylamino)-3-methoxyphenyl)(2-methylaziridin-1-yl)methanone] | 400 to 1000 |
| CNC(=O)c1ccc(OC)c(Nc2nc(OC3CCOCC3)c3c(-c4ccc5nc(C)oc5c4)c[nH]c3n2)c1 [Example 181, 4-methoxy-N-methyl-3-(5-(2-methylbenzo[d]oxazol-6-yl)-4-(tetrahydro-2H-pyran-4-yloxy)-7H-pyrrolo[2,3-d]pyrimidin-2-ylamino)benzamide] | 100 to 400 |
| CNC(=O)c1ccc(Nc2nc(OC3CCCC3)c3c(-c4ccc5nn[nH]c5c4)c[nH]c3n2)c(OC)c1 [Example 27, 4-(5-(1H-benzo[d][1,2,3]triazol-6-yl)-4-(cyclopentyloxy)-7H-pyrrolo [2,3-d]pyrimidin-2-ylamino)-3-methoxy-N-methylbenzamide] | < 100 |
| CNC(=O)c1ccc(Nc2nc(O[C@H]3CCOC3)c3c(-c4ccnc(C)c4)c[nH]c3n2)c(OC)c1 [Example 178, (S)-3-methoxy-N-methyl-4-(5-(2-methylpyridin-4-yl)-4-(tetrahydrofuran-3-yloxy)-7H-pyrrolo [2,3-d]pyrimidin-2-ylamino) benzamide] | < 100 |
| CNC(=O)c1ccc(Nc2nc(OC3CCOCC3)c3c(-c4ccc(N(C)C)nc4)c[nH]c3n2)c(OC)c1 [Example 126, 4-(5-(6-(dimethylamino)pyridin-3-yl)-4-(tetrahydro-2H-pyran-4-yloxy)-7H-pyrrolo[2,3-d]pyrimidin-2-ylamino)-3-methoxy-N-methylbenzamide] | 400 to 1000 |
| Cc1cc(C(=O)N(C)C)ccc1Nc1nc(OC2CCOCC2)c2c(-c3ccnc(C#N)c3)c[nH]c2n1 [Example 140, 4-(5-(2-cyanopyridin-4-yl)-4-(tetra-hydro-2H-pyran-4-yloxy)-7H-pyrrolo[2,3-d]pyrimidin-2-ylamino)-N,N,3-trimethylbenzamide] | 100 to 400 |
| CNC(=O)c1ccc(Nc2nc(OC(C)C)c3c(-c4ccc5nc(C)oc5c4)c[nH]c3n2)c(OC)c1 [Example 125, 4-(4-isopropoxy-5-(2-methylbenzo[d]oxazol-6-yl)-7H-pyrrolo[2,3-d]pyrimidin-2-ylamino)-3-methoxy-N-methylbenzamide] | < 100 |
| Cc1nc2ccc(-c3c[nH]c4nc(Nc5ccc(C(=O)N(C)C)cc5C)nc(OC5CCN(C)CC5)c34)cc2o1 [Example 95, N,N,3-trimethyl-4-(5-(2-methylbenzo[d]oxazol-6-yl)-4-(1-methylpiperidin-4-yloxy)-7H-pyrrolo[2,3-d]pyrimidin-2-ylamino)benzamide] | 400 to 1000 |
| Cc1cc(C(=O)N(C)C)ccc1Nc1nc(OC2CCOCC2)c2c(-c3ccn(C)n3)c[nH]c2n1 [Example 113, N,N,3-trimethyl-4-(5-(1-methyl-1H-pyrazol-3-yl)-4-(tetrahydro-2H-pyran-4-yloxy)-7H-pyrrolo[2,3-d]pyrimidin-2-ylamino)benzamide] | 400 to 1000 |
| CNC(=O)c1ccc(Nc2nc(O[C@H]3CC[C@H](O)CC3)c3c(-c4ccc(O)cc4)c[nH]c3n2)c(OC)c1 [Example 45, 4-(4-((1r,4R)-4-hydroxycyclo-hexyloxy)-5-(4-hydroxyphenyl)-7H-pyrrolo[2,3-d]pyrimidin-2-ylamino)-3-methoxy-N-methylbenzamide] | < 100 |
| CNC(=O)c1ccc(Nc2nc(OC3CCCC3)c3c(-c4ccc(O)c(Cl)c4)c[nH]c3n2)c(OC)c1 [Example 24, 4-(5-(3-chloro-4-hydroxyphenyl)-4-(cyclopentyloxy)-7H-pyrrolo[2,3-d]pyrimidin-2-ylamino)-3-methoxy-N-methylbenzamide] | < 100 |
| CNC(=O)c1ccc(Nc2nc(OC3CCCC3)c3c(-c4ccc(S(C)(=O)=O)cc4)c[nH]c3n2)c(OC)c1 [Example 61, 4-(4-(cyclopentyloxy)-5-(4-(methyl-sulfonyl)phenyl)-7H-pyrrolo[2,3-d]pyrimidin-2-ylamino)-3-methoxy-N-methylbenzamide] | < 100 |
| CNC(=O)c1ccc(Nc2nc(OC3CCOCC3)c3c(-c4ccnc(C)c4)c[nH]c3n2)c(OC)c1 [Example 167, 3-methoxy-N-methyl-4-(5-(2-methylpyridin-4-yl)-4-(tetrahydro-2H-pyran-4-yloxy)-7H-pyrrolo[2,3-d]pyrimidin-2-ylamino)benzamide] | < 100 |
| COc1nc(Nc2ccc(C(=O)N(C)C)cc2Cl)nc2[nH]cc(-c3ccc(-c4nnc[nH]4)cc3)c12 [Example 53, 4-(5-(4-(4H-1,2,4-triazol-3-yl)phenyl)-4-methoxy-7H-pyrrolo [2,3-d]pyrimidin-2-ylamino)-3-chloro-N,N-dimethylbenzamide] | 100 to 400 |
| Cc1cc(C(=O)N(C)C)ccc1Nc1nc(OC2CCOCC2)c2c(-c3ncco3)c[nH]c2n1 [Example 115, N,N,3-trimethyl-4-(5-(oxazol-2-yl)-4-(tetrahydro-2H-pyran-4-yloxy)-7H-pyrrolo[2,3-d]pyrimidin-2-ylamino)benzamide] | 400 to 1000 |
| CNC(=O)c1ccc(Nc2nc(OC3CCCC3)c3c(-c4ccc(OC)c(OC)c4)c[nH]c3n2)c(OC)c1 [Example 64, 4-(4-(cyclopentyloxy)-5-(3,4-dimethoxyphenyl)-7H-pyrrolo[2,3-d]pyrimidin-2-ylamino)-3-methoxy-N-methylbenzamide] | 100 to 400 |
| CNC(=O)c1ccc(-c2c[nH]c3nc(Nc4ccc(C(=O)NC5COC5)cc4OC)nc(OC4CCOCC4)c23)cc1 [Example 310, 3-methoxy-4-(5-(4-(methylcarbamoyl)phenyl)-4-(tetrahydro-2H-pyran-4-yloxy)-7H-pyrrolo[2,3-d]pyrimidin-2-ylamino)-N-(oxetan-3-yl) benzamide] | < 100 |
| CNC(=O)c1ccc(Nc2nc(OC3CCOCC3)c3c(-c4ccnc(N)c4)c[nH]c3n2)c(OC)c1 [Example 142, 4-(5-(2-aminopyridin-4-yl)-4-(tetra-hydro-2H-pyran-4-yloxy)-7H-pyrrolo[2,3-d]pyrimidin-2-ylamino)-3-methoxy-N-methylbenzamide] | < 100 |
| COc1cc(C(=O)NC[C@H](C)O)ccc1Nc1nc(OC2CCCC2)c2c(-c3ccc4nc(C)oc4c3)c[nH]c2n1 [Example 240, (S)-4-(4-(cyclopentyloxy)-5-(2-methylbenzo[d]oxazol-6-yl)-7H-pyrrolo[2,3-d]pyrimidin-2-ylamino)-N-(2-hydroxypropyl)-3-methoxybenzamide] | 100 to 400 |
| COc1cc(C(=O)NCCO)ccc1Nc1nc(OC(C)C)c2c(-c3ccc4nc(C)oc4c3)c[nH]c2n1 [Example 160, N-(2-hydroxyethyl)-4-(4-isopropoxy-5-(2-methylbenzo[d]oxazol-6-yl)-7H-pyrrolo[2,3-d]pyrimidin-2-ylamino)-3-methoxybenzamide] | < 100 |
| COc1cc(C(=O)N2C[C@@H](O)[C@H](OC)C2)ccc1Nc1nc(OC2CCCC2)c2c(-c3ccc4nc(C)oc4c3)c[nH]c2n1 [Example 291, (4-(4-(cyclopentyloxy)-5-(2-methylbenzo[d]oxazol-6-yl)-7H-pyrrolo[2,3-d]pyrimidin-2-ylamino)-3-methoxyphenyl) ((3R,4R)-3-hydroxy-4-methoxypyrrolidin-1-yl) methanone] | < 100 |
| COc1cc(C(=O)NCCO)ccc1Nc1nc(OC2CC2)c2c(-c3cnn(C)c3)c[nH]c2n1 [Example 217, 4-(4-cyclopropoxy-5-(1-methyl-1H-pyrazol-4-yl)-7H-pyrrolo[2,3-d]pyrimidin-2-ylamino)-N-(2-hydroxyethyl)-3-methoxybenzamide] | 100 to 400 |
| CNC(=O)c1ccc(Nc2nc(OC3CCOCC3)c3c(-c4cccc(S(C)(=O)=O)c4)c[nH]c3n2)c(OC)c1 [Example 106, 3-methoxy-N-methyl-4-(5-(3-(methylsulfonyl)phenyl)-4-(tetrahydro-2H-pyran-4-yloxy)-7H-pyrrolo[2,3-d]pyrimidin-2-ylamino)benzamide] | < 100 |
| CNC(=O)c1ccc(Nc2nc(OC3CCOCC3)c3c(-c4ccnc(C(=O)NC)c4)c[nH]c3n2)c(OC)c1 [Example 288, 4-(2-(2-methoxy-4-(methylcarbamoyl)phenylamino)-4-(tetrahydro-2H-pyran-4-yloxy)-7H-pyrrolo[2,3-d]pyrimidin-5-yl)-N-methylpicolinamide] | 100 to 400 |
| CNC(=O)c1ccc(-c2c[nH]c3nc(Nc4ccc(C(=O)NC)cc4OC)nc(OC(C)C)c23)cc1 [Example 188, 4-(4-isopropoxy-5-(4-(methylcarbamoyl)phenyl)-7H-pyrrolo[2,3-d]pyrimidin-2-ylamino)-3-methoxy-N-methylbenzamide] | < 100 |
| COc1cc(C(=O)NCCN)ccc1Nc1nc(OC2CCCC2)c2c(-c3ccc4nc(C)oc4c3)c[nH]c2n1 [Example 100, N-(2-aminoethyl)-4-(4-(cyclopentyl-oxy)-5-(2-methylbenzo[d]oxazol-6-yl)-7H-pyrrolo[2,3-d]pyrimidin-2-ylamino)-3-methoxybenzamide] | < 100 |
| CNC(=O)c1ccc(Nc2nc(OC3CCOCC3)c3c(-c4ccc(-c5nc(C)c[nH]5)cc4)c[nH]c3n2)c(OC)c1 [Example 207, 3-methoxy-N-methyl-4-(5-(4-(4-methyl-1H-imidazol-2-yl)phenyl)-4-(tetrahydro-2H-pyran-4-yloxy)-7H-pyrrolo[2,3-d]pyrimidin-2-ylamino)benzamide] | < 100 |
